What was measured:
[1] = target: Human aminopeptidase P2 (APP2) (Homo sapiens (Human), UniProt O43895); assay: Determination of human APP2 activity (quenched fluorescent substrate); type: biochemical; conditions: for IC50: purified human kidney APP2, substrate 1 μM (=Km), pH 7.4, 30° C., read-out: Binding affinity (IC50) APP2; for IC50 ratio ACE/APP2: selectivity, ratio of IC50s for ACE/APP2
Procedure: Human kidney tissue, which was obtained from the Cooperative Human Tissue Network, was the source of purified human APP2 as used herein. APP2 enzyme activity was measured during purification as described in Example 2B below. The membrane-bound APP2 was purified from human kidney tissue using the following steps: 1) kidney tissue was homogenized in 30 volumes of buffer containing Triton X-100 detergent and centrifuged; 2) the pellet was washed and suspended in buffer containing octyl-β-D-glucopyranoside detergent, and then centrifuged; 3) the supernatant was treated with 10 units of phosphatidylinositol-specific phospholipase C (Invitrogen, Eugene, Ga.) to remove the hydrophobic part of the glycosyl-phosphatidylinositol lipid membrane anchor from APP2, and then dialyzed; 4) the dialysate was passed through an octyl-Sepharose chromatography column; 5) the eluent was centrifuged and then concentrated by ultrafiltration in Amicon Ultra-15 Ultracel-10 k filters (Millipore Corp, Billerica, Mass.); 6) the retentate was dialyzed and applied to a HiTrap Q-Sepharose XL ion exchange chromatography column. Human APP2 enzyme activity was eluted with a linear KCl salt gradient.
Human aminopeptidase P2 (APP2) enzyme activity was determined using the internally quenched fluorescent substrate: H-Lys(2-aminobenzoyl)-Pro-Pro-p-nitroanilide (Bachem, Torrance, Calif.) at 1 μM (=Km) for inhibitor studies and 5 μM for enzyme purification assays. The assay buffer was 0.1 M HEPES, pH 7.4, and the assay temperature was 30° C. Cleavage of the substrate by the enzyme produces an increase in fluorescence due to the release of H-Lys(2-aminobenzoyl). Enzyme rates were determined in an F. fluorescence plate reader (Molecular Devices, Sunnyvale, Calif.) using an excitation wavelength of 320 nm and an emission wavelength of 405 nm. The binding affinity of an inhibitor was estimated and expressed as IC50 values (the concentration that inhibits activity by 50%).

[2] = target: Human recombinant angiotensin-converting enzyme (hrACE) (Homo sapiens (Human), UniProt P12821); assay: Determination of human ACE activity (quenched fluorescent substrate ES005); type: biochemical; conditions: for IC50: hrACE, substrate below Km, pH 7.4, 30° C., read-out: Binding affinity (IC50) ACE
Human recombinant angiotensin-converting enzyme (hrACE), sequence (P12821 30-1306): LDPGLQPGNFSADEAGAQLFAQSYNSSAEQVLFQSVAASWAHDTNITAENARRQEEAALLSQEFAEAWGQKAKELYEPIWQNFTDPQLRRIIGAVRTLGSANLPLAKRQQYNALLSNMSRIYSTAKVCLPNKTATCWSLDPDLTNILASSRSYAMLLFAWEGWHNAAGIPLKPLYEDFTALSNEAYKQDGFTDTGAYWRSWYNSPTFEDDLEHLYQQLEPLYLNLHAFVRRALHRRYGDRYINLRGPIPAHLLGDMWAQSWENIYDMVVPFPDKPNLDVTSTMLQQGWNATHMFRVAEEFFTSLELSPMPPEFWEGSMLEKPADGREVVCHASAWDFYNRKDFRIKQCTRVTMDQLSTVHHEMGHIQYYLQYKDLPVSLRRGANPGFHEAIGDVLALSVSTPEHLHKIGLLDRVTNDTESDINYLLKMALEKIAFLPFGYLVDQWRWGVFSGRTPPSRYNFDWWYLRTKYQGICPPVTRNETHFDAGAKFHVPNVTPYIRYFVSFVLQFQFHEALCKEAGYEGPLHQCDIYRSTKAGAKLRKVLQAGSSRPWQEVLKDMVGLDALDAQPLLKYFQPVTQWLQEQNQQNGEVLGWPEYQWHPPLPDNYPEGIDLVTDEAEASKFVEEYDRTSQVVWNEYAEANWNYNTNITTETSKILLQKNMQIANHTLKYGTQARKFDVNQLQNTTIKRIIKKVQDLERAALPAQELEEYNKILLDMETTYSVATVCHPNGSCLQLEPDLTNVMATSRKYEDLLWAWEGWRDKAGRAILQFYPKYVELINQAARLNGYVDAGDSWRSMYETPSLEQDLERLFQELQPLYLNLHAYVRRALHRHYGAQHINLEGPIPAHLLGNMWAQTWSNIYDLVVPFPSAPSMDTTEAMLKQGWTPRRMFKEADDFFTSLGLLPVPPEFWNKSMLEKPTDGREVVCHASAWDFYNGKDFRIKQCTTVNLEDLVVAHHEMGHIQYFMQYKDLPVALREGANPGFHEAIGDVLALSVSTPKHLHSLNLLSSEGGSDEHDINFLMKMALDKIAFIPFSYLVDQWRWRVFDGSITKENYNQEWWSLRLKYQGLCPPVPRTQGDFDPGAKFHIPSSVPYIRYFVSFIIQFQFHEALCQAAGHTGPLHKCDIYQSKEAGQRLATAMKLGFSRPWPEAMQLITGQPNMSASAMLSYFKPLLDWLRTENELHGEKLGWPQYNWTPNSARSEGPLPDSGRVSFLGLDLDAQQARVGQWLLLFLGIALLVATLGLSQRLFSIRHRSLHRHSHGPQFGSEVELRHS
Procedure: Human recombinant angiotensin-converting enzyme (hrACE) was obtained from R&D Systems (Minneapolis, Minn.). Its enzyme activity was determined using the internally quenched fluorescent substrate ES005: (7-methoxycoumarin-4-yl)acetyl-Arg-Pro-Pro-Gly-Phe-Ser-Ala-Phe-(2,4-dinitrophenyl)-Lys (R&D Systems, Minneapolis, Minn.). The assay buffer was 0.1 M HEPES, pH 7.4, and the temperature was 30° C. The substrate concentration was below Km (≦40 μM). Enzyme rates were determined in an Fmax fluorescence plate reader (Molecular Devices, Sunnyvale, Calif.) using an excitation wavelength of 320 nm and an emission wavelength of 405 nm. The binding affinity of an inhibitor was estimated and expressed as IC50 values (the concentration that inhibits activity by 50%).

Male CD-1(ICR) mice = assay: Bilateral renal ischemia/reperfusion in mice; type: in vivo, mouse; conditions: for reduction of blood urea nitrogen (BUN) compared to saline: i.v. 5 min before reperfusion after 25 min ischemia, BUN after 2 days of reperfusion, apstatin 1.8 mg/kg, ST-115 10 μg/kg; for mice that died before the prespecified 2-day BUN measurement point: saline control 29% died early
Procedure: Previous studies have shown that the prototype APP2 inhibitor apstatin can greatly reduce ischemia/reperfusion damage in the heart. […] In this study, blood flow to both kidneys of the mouse was blocked for 25 min., producing ischemia. Blood flow was then restored (reperfusion). In order to determine the effects of inhibiting APP2 in this model of kidney damage, apstatin, ST-115, or saline (control) were administered intravenously 5 min. before reperfusion. After two days of reperfusion, blood urea nitrogen (BUN, a marker of kidney dysfunction) was measured. In FIG. 1, data are presented as the mean±standard error of the mean. Each drug was separately compared to the control by the unpaired t-test with Welch's correction. ** Apstatin vs. Saline, p<0.01; *** ST-115 vs. Saline, p<0.001.
Male CD-1(ICR) mice (36-47 g) from Harlan Laboratories (Indianapolis, Ind.) were used. Each mouse was anesthetized by the subcutaneous injection of 50 mg/kg sodium pentobarbital (Akorn Inc, Lake Forest, Ill.) and placed on a 37° C. warmer. For surgery, the abdomen was shaved and the mouse was moved to a warming plate with feedback temperature control (TCAT-2DF, Harvard Apparatus Holliston, Mass.). The body temperature of the mouse was maintained at 36.9±0.1° C. throughout the procedure. The skin of the abdomen was washed with alcohol, and a midline incision was made to expose the kidneys. After removing adipose tissue from the renal pedicles, a microaneurysm clamp was placed on each pedicle to block blood flow to/from both kidneys for 25 min. (referred to as the ischemia phase). At the 20 min. point, 0.15 ml of either saline or saline containing drug (apstatin or ST-115) was administered intravenously through the femoral vein. The doses were 1.8 mg/kg for apstatin and 10 μg/kg for ST-115. At 5 minutes after drug injection, the clamps were removed from the pedicles to restore blood flow to/from the kidneys (the reperfusion phase). After confirming reperfusion, a subcutaneous injection of saline was administered in the upper thigh for rehydration, and the incision was sutured closed. Regulated temperature control was maintained for at least the first 0.5 hours of reperfusion. The mouse was then placed on a 37° C. warmer to recover from the anesthetic and then moved to the home cage. After 2 days of reperfusion, the mouse was sacrificed by exsanguination. The blood was allowed to clot and then centrifuged to obtain serum. The serum was assayed for its concentration of urea (Blood Urea Nitrogen—BUN), a marker of kidney damage, using a kit from Stanbio (Boerne, Tex.). […] The BUN data points (20) were analyzed by comparing the values for each drug with those of the saline control using the unpaired t-test with Welch's correction (Graphpad Prism statistical package, La Jolla, Calif.).

isolated perfused heart = conditions: ischemia/reperfusion (Ersahin et al. 1999); cited from earlier work

Human aminopeptidase P2 (APP2), sequence (O43895 22-674): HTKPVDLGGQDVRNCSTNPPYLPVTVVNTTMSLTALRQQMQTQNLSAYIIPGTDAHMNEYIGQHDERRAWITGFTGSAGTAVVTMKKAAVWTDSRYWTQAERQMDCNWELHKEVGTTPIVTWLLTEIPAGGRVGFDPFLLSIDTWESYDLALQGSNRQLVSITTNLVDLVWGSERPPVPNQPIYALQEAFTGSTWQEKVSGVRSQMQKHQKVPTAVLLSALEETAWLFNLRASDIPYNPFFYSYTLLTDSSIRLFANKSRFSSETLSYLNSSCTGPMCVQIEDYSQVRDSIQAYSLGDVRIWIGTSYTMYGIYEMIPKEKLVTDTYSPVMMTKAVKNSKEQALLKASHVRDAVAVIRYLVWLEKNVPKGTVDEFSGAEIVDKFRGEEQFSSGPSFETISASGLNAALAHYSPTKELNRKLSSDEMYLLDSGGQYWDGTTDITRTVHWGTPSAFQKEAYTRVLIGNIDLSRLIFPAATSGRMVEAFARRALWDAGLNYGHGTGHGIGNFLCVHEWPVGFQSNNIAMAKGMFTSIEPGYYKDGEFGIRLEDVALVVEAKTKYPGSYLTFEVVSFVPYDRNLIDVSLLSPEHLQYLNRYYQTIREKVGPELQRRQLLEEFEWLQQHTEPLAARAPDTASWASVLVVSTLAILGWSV

IC50 [1] [nM]	IC50 ratio ACE/APP2 [1]	IC50 [2] [nM]	SMILES	IC50 for human APP2 [1] [nM/L]	IC50 for human ACE [2]	reduction of blood urea nitrogen (BUN) compared to saline (Male CD-1(ICR) mice) [%]	mice that died before the prespecified 2-day BUN measurement point (Male CD-1(ICR) mice)	reduction of cardiac damage (isolated perfused heart) [%]
3.9	160	640	CC(C)C[C@H](S)C(=O)N1CCC[C@H]1C(=O)N1CCC[C@H]1C(=O)N(C)[C@@H](C)C(=O)O [Formula VII]	–	–	–	–	–
9.7	1,200	12000	CC(C)C[C@H](S)C(=O)N1CCC[C@H]1C(=O)N1CCC[C@H]1C(=O)N1CCC[C@@H]1C(=O)O [Formula VI]	–	–	–	–	–
26	1,900	49000	CC(C)C[C@H](S)C(=O)N1CCC[C@H]1C(=O)N1CCC[C@H]1C(=O)N1CC[C@H](C(=O)O)C1 [Formula V]	–	–	–	–	–
–	–	–	C[C@H](NC(=O)[C@@H]1CCCN1C(=O)[C@@H]1CCCN1C(=O)[C@@H](O)[C@H](N)Cc1ccccc1)C(N)=O [apstatin]	–	–	49	no apstatin or ST-115 treated mice died early	74

SMILES	IC50 [1] [nM]	IC50 ratio ACE/APP2 [1]	IC50 [2] [nM]	IC50 for human APP2 [1] [nM/L]	IC50 for human ACE [2]	reduction of blood urea nitrogen (BUN) compared to saline (Male CD-1(ICR) mice) [%]	mice that died before the prespecified 2-day BUN measurement point (Male CD-1(ICR) mice)	reduction of cardiac damage (isolated perfused heart) [%]
CC(C)C[C@H](S)C(=O)N1C[C@@H](F)C[C@H]1C(=O)N1CCC[C@H]1C(=O)N1CC[C@@H](C(=O)O)C1 [Formula III, [(S)-2-mercapto-4-methylpentanoyl]-4(S)-fluoro-Pro-Pro-[(3R)-β-Pro]-OH]	3.7	18,000	68000	3.7	68,000 nM/L	56	no apstatin or ST-115 treated mice died early	–

— patent publication US9212206B1, “4-Fluoro-Thio-containing inhibitors of APP2, compositions thereof and method of use” (priority 2014, dated 2015)
